This passage reports Activity results from ChEMBL document CHEMBL3046967, “Synthesis and Fungicidal Activities of 2-(-Methoxyiminobenzyl)-1-methylimidazole Derivatives” (2001).

Assay type in all cases: functional
Assay [1] concerns Podosphaera fuliginea. The experiment in a line: Antifungal activity against Podosphaera fuliginea in cucumber at 125 ppm.
The subject of assay [2] is Pseudoperonospora cubensis. Description: Antifungal activity against Pseudoperonospora cubensis in cucumber at 500 ppm.
Assay [3] relates to Podosphaera fuliginea. Description: Antifungal activity against Podosphaera fuliginea in cucumber at 2 ppm.
Assay [4] concerns Pseudoperonospora cubensis. Description: Antifungal activity against Pseudoperonospora cubensis in cucumber at 7.8 ppm.
Assay [5] has as its system Podosphaera fuliginea. Description: Antifungal activity against Podosphaera fuliginea in cucumber at 7.8 ppm.
Assay [6] concerns Podosphaera fuliginea. The experiment in a line: Antifungal activity against Podosphaera fuliginea in cucumber at 31.3 ppm.
For assay [7], the system named is Pseudoperonospora cubensis. The experiment in a line: Antifungal activity against Pseudoperonospora cubensis in cucumber at 2 ppm.
In assay [8] the test system is Botrytis cinerea. Description: Antifungal activity against Botryotinia fuckeliana in cucumber at 7.8 ppm.
Assay [9] deals with Botrytis cinerea. The experiment in a line: Antifungal activity against Botryotinia fuckeliana in cucumber at 500 ppm.
Assay [10] relates to Pseudoperonospora cubensis. Description: Antifungal activity against Pseudoperonospora cubensis in cucumber at 125 ppm.
Assay [11] has as its system Pseudoperonospora cubensis. Description: Antifungal activity against Pseudoperonospora cubensis in cucumber at 31.3 ppm.
In assay [12] the test system is Podosphaera fuliginea. The experiment in a line: Antifungal activity against Podosphaera fuliginea in cucumber at 500 ppm.

Some results are limits rather than exact numbers.

For `CO/N=C(\c1ccccc1/C=N/OC(C)c1ccccc1C(F)(F)F)c1nccn1C` (stereo not drawn), the Activity in assay [1] is 90%; in assay [2] it was less than 50%.

With `CO/N=C(\c1ccccc1/C=N/OC(C)c1cccc(C(F)(F)F)c1)c1nccn1C` (stereo not drawn), the Activity in assay [3] was found to be 90%; in [2], 50%.

Turning to `CO/N=C(\c1ccccc1/C=N/OC(C)c1ccc(Br)cc1)c1nccn1C` (stereo not drawn), the Activity stood at 50% in [4] and 90% in assay [5].

Take `CO/N=C(\c1ccccc1/C=N/OC(C)c1ccc(OC)cc1)c1nccn1C` (stereo not drawn): the Activity in assay [6] is listed as 90%; in assay [2] it was less than 50%.

Turning to `CO/N=C(\c1ccccc1/C=N/OC(C)c1ccc(OC(F)(F)F)cc1)c1nccn1C` (stereo not drawn), the Activity was 90% in [3] and 50% in assay [7].

Take `CO/N=C(\c1ccccc1/C=N/OC(C)c1ccc(Cl)cc1Cl)c1nccn1C` (stereo not drawn): the Activity was 90% in assay [6] and less than 50% in [2].

Regarding `CO/N=C(\c1ccccc1/C=N/OCc1ccc(Cl)cc1)c1nccn1C`, the Activity is 90% in assay [5] and less than 50% in [2].

As to `CCC(O/N=C/c1ccccc1/C(=N\OC)c1nccn1C)c1ccc(Cl)c(Cl)c1` (stereo not drawn), the results for the Activity in assay [4] and in assay [6] were 50% and 90%, respectively.

With `CO/N=C(\c1ccccc1COc1ccc(Cl)cc1C)c1nccn1C`, the Activity is 50% in assay [8], 90% in assay [3] and less than 50% in assay [2].

For the compound `CO/N=C(\c1ccccc1COc1ccc(Cl)cn1)c1nccn1C`, the Activity in assay [9] stood at 50%; in assay [6] it was 90%; in [2], 50%.

With `CO/N=C(\c1ccccc1COc1ccc(C(F)(F)F)cn1)c1nccn1C`, the Activity is given as 50% in assay [9], 90% in assay [5] and 50% in assay [2].

For the compound `CO/N=C(\c1ccccc1COc1ncc(Cl)cc1Cl)c1nccn1C`, the Activity in assay [10] is 50%; in assay [9] it was 50%; in assay [5] it was 90%.

As to `CO/N=C(\c1ccccc1/C=N/N=C(/C)c1ccc(Cl)cc1)c1nccn1C`, the Activity is recorded as 50% in assay [11], less than 50% in [9] and 90% in assay [6].

On to `CO/N=C(\c1ccccc1/C=N/N=C(/C)c1ccc(C(F)(F)F)cc1)c1nccn1C`, for which the results for the Activity in [4], in [9] and in assay [5] were 50%, less than 50% and 90%, respectively.

Regarding `CO/N=C(\c1ccccc1/C=N/N=C(/C)c1ccc(Cl)c(Cl)c1)c1nccn1C`, the Activity in assay [4] is 50%; in assay [9] it was less than 50%; in assay [5] it was 90%.

Regarding `CO/N=C(\c1ccccc1/C=N/OC(C)c1ccc(Cl)cc1)c1nccn1C` (stereo not drawn), the Activity is 50% in assay [4], 50% in assay [9] and 90% in [3].

On to `CO/N=C(\c1ccccc1/C=N/OC(C)c1ccc(C(F)(F)F)cc1)c1nccn1C` (stereo not drawn), for which the Activity in assay [9] is less than 50%; in [3], 90%; in assay [7] it was 50%.

`CO/N=C(\c1ccccc1/C=N/OC(C)c1ccc(Cl)c(Cl)c1)c1nccn1C` (stereo not drawn): the Activity in assay [4] came out at 50%; in assay [9] it was 50%; in assay [3], 90%.

As for `CO/N=C(\c1ccccc1/C=N/OC(C)c1ccccc1)c1nccn1C` (stereo not drawn), the Activity was 90% in [1] and less than 50% in assay [2].

For `CO/N=C(\c1ccccc1/C=N/OC(C)c1ccccc1Cl)c1nccn1C` (stereo not drawn), the values for the Activity in assay [1] and in assay [2] were 90% and less than 50%, respectively.

Turning to `CO/N=C(\c1ccccc1/C=N/OC(C)c1cccc(Cl)c1)c1nccn1C` (stereo not drawn), the Activity in assay [1] is listed as 90%; in [2], less than 50%.

On to `CO/N=C(\c1ccccc1/C=N/OC(C)c1ccccc1C)c1nccn1C` (stereo not drawn), for which the Activity in assay [12] was 90%; in assay [2], less than 50%.

`CO/N=C(\c1ccccc1/C=N/OC(C)c1cccc(C)c1)c1nccn1C` (stereo not drawn): the Activity in assay [6] was 90%; in [2], less than 50%.

As to `CO/N=C(\c1ccccc1/C=N/OC(C)c1ccc(C)cc1)c1nccn1C` (stereo not drawn), the Activity in assay [6] was 90%; in assay [2], less than 50%.
